Values of other authors as cited in PMC9851200, “Multiparameter phenotypic screening for endogenous TFEB and TFE3 translocation identifies novel chemical series modulating lysosome function” (Autophagy, 2022).

Experiments:
Set-up in all cases: method as in original PKIS2 published data
[1] = target: kinases (KINOMEscan panel) (Homo sapiens, UniProt P07333); details: Published KINOMEscan; ref original PKIS2 published data; cited from earlier work
[2] = target: kinases (KINOMEscan panel) (Homo sapiens, UniProt O96013); details: PAK4; Published KINOMEscan; ref original PKIS2 published data; cited from earlier work
[3] = target: kinases (KINOMEscan panel) (Homo sapiens, UniProt Q15375); details: EPHA7; Published KINOMEscan; ref original PKIS2 published data; cited from earlier work
Sequence of kinases (KINOMEscan panel) (Homo sapiens, UniProt Q15375) (Q15375 28-998): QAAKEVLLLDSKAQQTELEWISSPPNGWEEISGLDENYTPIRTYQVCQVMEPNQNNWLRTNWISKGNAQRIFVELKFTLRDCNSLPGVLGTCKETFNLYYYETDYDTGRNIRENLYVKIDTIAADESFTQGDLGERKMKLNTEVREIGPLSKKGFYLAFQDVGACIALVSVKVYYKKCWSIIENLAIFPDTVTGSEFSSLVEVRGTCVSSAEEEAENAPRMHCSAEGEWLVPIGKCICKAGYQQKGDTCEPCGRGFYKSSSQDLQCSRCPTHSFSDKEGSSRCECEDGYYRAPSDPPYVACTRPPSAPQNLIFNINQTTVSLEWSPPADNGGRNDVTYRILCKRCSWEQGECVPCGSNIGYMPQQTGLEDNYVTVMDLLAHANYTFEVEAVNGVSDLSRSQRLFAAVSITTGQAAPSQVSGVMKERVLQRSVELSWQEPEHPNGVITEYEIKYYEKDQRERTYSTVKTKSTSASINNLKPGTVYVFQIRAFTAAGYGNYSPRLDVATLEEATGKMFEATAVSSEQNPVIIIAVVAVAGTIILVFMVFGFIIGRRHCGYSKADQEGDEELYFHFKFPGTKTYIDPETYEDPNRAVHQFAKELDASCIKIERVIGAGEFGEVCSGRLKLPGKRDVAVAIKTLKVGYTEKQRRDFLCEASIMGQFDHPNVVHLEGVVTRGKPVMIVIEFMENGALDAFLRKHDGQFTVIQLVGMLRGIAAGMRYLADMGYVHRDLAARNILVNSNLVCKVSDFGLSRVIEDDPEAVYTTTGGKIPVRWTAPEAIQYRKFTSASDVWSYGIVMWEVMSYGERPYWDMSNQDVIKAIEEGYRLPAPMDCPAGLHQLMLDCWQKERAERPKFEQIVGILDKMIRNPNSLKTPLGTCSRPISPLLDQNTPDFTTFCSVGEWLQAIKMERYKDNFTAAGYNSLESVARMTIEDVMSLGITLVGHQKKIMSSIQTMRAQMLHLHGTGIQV

[4] = target: T1, kinases (KINOMEscan panel) (Homo sapiens, UniProt Q9UQB9); details: AURKC; Published KINOMEscan; ref original PKIS2 published data; cited from earlier work
T1 sequence (Q9UQB9 1-309): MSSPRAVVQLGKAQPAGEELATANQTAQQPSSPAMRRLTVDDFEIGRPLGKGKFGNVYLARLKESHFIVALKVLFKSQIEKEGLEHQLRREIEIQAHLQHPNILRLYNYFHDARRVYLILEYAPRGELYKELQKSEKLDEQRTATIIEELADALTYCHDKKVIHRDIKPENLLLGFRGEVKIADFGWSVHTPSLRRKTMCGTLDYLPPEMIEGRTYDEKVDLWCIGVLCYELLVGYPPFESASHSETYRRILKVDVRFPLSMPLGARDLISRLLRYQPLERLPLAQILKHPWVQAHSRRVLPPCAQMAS

[5] = target: T2, kinases (KINOMEscan panel) (Homo sapiens, UniProt O00141); details: kinase SGK1; Published KINOMEscan; ref original PKIS2 published data; cited from earlier work
T2 sequence (O00141 1-431): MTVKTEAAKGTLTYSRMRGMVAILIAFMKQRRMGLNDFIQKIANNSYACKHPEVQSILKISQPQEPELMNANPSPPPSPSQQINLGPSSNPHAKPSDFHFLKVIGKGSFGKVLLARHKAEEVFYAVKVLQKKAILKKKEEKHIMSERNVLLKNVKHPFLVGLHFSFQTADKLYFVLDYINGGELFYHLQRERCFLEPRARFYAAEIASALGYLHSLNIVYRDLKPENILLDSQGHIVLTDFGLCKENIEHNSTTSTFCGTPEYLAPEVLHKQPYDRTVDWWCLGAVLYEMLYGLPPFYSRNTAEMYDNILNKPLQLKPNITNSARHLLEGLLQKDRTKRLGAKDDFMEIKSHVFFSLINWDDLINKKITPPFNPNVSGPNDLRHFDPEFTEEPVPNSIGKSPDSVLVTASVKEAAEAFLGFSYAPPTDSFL

[6] = target: kinases (KINOMEscan panel) (Homo sapiens, UniProt Q9BWU1); details: kinase CDK19; Published KINOMEscan; ref original PKIS2 published data; cited from earlier work
Sequence of kinases (KINOMEscan panel) (Homo sapiens, UniProt Q9BWU1) (Q9BWU1 whole entry): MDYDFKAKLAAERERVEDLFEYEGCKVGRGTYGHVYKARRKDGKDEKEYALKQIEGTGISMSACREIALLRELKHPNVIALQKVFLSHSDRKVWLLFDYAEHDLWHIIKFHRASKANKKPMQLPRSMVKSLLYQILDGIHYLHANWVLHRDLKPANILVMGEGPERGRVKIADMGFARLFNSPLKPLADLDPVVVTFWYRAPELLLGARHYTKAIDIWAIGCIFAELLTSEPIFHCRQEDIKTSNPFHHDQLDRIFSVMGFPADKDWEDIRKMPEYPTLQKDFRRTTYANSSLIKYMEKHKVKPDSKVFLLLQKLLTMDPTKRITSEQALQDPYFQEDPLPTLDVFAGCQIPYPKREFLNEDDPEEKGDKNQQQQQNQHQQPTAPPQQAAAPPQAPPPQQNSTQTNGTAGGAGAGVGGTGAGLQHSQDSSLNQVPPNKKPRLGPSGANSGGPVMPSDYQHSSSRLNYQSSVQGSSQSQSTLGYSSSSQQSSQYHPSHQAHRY

[7] = target: kinases (KINOMEscan panel) (Homo sapiens, UniProt P50750); details: kinase CDK9; Published KINOMEscan; ref original PKIS2 published data; cited from earlier work
[8] = target: T3, kinases (KINOMEscan panel) (Homo sapiens, UniProt P57078); details: RIPK4; Published KINOMEscan; ref original PKIS2 published data; cited from earlier work
T3 sequence (P57078 1-832): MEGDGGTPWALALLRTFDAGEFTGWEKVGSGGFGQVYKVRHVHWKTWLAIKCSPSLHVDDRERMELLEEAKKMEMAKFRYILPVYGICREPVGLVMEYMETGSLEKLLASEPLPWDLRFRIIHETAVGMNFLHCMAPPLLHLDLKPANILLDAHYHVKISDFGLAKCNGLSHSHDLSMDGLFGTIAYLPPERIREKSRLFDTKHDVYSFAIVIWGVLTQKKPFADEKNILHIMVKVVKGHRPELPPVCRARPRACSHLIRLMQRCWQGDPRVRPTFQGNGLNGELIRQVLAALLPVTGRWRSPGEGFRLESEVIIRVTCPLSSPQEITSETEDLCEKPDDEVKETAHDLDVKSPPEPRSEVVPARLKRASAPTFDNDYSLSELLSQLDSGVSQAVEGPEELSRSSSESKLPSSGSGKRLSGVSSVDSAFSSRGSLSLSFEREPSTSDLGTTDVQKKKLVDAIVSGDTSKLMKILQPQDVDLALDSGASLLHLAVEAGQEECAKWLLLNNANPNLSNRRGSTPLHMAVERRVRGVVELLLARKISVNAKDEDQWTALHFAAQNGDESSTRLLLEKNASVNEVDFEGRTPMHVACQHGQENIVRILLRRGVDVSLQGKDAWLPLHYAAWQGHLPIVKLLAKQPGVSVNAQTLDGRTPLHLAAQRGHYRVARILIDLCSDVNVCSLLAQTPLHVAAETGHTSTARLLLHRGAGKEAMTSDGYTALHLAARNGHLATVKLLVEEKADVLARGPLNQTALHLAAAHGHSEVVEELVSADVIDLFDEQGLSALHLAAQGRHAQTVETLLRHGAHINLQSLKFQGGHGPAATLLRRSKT

[9] = target: kinases (KINOMEscan panel) (Homo sapiens, UniProt Q9HBH9); details: MKNK2; Published KINOMEscan; ref original PKIS2 published data; cited from earlier work
Sequence of kinases (KINOMEscan panel) (Homo sapiens, UniProt Q9HBH9) (Q9HBH9 whole entry): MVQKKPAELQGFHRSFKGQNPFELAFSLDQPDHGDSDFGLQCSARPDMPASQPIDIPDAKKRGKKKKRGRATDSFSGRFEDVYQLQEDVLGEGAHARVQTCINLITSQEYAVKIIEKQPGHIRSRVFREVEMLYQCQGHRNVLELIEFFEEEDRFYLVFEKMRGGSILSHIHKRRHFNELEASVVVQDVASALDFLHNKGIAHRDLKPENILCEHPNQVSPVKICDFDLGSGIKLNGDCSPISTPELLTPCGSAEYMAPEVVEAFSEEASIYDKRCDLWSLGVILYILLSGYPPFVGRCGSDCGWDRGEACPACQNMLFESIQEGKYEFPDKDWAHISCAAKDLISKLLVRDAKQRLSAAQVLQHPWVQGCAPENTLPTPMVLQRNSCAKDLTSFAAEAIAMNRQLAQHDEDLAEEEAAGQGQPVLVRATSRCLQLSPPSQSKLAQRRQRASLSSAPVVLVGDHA

[10] = target: kinases (KINOMEscan panel) (Homo sapiens, UniProt P29376); details: LTK; Published KINOMEscan; ref original PKIS2 published data; cited from earlier work
[11] = target: kinases (KINOMEscan panel) (Homo sapiens, UniProt Q9BVS4); details: RIOK2; Published KINOMEscan; ref original PKIS2 published data; cited from earlier work
Sequence of kinases (KINOMEscan panel) (Homo sapiens, UniProt Q9BVS4) (Q9BVS4 whole entry): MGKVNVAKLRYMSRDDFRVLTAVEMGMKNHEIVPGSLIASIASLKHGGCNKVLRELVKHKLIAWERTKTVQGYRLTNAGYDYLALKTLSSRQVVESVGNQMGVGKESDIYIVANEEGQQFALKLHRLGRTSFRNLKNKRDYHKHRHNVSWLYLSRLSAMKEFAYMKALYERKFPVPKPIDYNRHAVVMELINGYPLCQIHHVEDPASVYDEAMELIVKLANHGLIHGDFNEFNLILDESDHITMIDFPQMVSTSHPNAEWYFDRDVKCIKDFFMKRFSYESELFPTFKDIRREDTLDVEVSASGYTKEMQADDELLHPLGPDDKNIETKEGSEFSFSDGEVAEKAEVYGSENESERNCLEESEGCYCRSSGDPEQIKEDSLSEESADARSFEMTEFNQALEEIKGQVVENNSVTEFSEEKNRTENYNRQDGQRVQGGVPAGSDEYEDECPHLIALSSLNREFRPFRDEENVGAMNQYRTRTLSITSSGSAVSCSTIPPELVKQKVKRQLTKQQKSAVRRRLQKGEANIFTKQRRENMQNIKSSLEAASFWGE

[12] = target: kinases (KINOMEscan panel) (Homo sapiens, UniProt Q9Y6R4); details: MAP3K4; Published KINOMEscan; ref original PKIS2 published data; cited from earlier work
Sequence of kinases (KINOMEscan panel) (Homo sapiens, UniProt Q9Y6R4) (Q9Y6R4 whole entry): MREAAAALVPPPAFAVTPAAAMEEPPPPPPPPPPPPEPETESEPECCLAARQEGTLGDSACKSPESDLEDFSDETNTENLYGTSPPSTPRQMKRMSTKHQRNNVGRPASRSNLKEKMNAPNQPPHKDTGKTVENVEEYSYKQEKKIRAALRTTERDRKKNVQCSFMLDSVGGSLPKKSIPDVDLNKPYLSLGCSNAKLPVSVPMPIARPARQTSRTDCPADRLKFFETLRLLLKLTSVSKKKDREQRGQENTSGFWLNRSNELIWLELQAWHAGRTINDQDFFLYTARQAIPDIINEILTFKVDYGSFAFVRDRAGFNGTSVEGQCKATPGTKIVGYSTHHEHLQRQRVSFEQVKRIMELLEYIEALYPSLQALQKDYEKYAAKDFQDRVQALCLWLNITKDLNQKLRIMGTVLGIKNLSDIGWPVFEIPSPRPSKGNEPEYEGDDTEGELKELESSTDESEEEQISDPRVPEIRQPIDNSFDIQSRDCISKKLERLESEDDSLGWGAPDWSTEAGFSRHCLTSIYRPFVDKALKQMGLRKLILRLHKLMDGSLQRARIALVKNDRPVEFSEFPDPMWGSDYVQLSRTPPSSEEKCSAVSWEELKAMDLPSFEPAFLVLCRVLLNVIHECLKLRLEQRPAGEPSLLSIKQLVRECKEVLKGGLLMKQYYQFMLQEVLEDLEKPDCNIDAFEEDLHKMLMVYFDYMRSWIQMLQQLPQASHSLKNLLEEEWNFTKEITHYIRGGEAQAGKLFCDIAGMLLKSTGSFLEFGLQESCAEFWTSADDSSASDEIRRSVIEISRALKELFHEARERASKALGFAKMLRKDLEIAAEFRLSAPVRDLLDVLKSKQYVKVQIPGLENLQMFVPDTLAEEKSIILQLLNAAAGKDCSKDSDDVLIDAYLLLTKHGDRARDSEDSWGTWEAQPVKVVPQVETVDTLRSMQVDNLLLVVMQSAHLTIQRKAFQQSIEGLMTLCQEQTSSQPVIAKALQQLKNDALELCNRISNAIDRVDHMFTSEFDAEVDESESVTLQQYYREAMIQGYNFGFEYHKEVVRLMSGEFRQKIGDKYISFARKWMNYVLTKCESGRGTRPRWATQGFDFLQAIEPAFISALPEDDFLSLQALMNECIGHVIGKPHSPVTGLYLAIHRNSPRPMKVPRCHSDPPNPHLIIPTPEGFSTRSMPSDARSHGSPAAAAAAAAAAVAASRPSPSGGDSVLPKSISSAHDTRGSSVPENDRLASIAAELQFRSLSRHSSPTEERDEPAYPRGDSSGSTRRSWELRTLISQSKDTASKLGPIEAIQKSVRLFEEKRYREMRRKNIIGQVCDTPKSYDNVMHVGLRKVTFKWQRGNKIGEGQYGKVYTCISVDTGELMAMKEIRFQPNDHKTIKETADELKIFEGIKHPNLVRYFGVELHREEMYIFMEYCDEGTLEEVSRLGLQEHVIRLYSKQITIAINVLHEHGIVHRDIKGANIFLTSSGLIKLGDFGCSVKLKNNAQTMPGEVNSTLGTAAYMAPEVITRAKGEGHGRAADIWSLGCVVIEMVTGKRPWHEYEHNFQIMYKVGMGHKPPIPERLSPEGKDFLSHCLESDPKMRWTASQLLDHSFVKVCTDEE

Sequence of kinases (KINOMEscan panel) (Homo sapiens, UniProt P07333) (P07333 20-972): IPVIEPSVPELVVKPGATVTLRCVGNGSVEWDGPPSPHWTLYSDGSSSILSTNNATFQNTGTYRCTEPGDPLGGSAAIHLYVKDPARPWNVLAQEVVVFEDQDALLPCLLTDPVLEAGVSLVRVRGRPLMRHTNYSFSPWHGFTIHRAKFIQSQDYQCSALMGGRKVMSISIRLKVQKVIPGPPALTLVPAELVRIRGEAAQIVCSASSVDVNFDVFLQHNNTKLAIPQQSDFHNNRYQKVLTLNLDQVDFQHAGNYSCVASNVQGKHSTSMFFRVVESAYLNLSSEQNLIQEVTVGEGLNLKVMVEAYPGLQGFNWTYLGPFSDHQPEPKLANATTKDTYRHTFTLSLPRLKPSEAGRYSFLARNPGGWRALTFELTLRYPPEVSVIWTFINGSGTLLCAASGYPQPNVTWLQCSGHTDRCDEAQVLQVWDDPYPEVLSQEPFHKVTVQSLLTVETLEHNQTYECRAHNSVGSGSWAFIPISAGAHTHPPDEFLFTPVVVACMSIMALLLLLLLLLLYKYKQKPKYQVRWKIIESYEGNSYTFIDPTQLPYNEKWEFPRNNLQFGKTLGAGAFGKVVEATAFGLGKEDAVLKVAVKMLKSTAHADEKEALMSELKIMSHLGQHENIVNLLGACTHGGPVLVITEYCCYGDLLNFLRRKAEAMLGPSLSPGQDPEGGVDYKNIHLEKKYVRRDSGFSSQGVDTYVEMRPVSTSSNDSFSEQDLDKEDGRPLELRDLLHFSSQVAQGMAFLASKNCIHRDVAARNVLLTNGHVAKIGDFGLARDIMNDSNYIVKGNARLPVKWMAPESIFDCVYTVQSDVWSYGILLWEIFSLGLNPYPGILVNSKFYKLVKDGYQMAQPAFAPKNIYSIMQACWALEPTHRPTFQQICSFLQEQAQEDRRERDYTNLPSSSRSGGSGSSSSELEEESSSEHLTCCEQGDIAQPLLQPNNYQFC

Cc1cccc(-c2nc(Nc3ccncc3)c3ccccc3n2)n1 [NK215]
KINOMEscan CSF1R [1]: 0 | KINOMEscan CSF1R-autoinhibited [1]: 0 | KINOMEscan PAK4 [2]: 0 | KINOMEscan EPHA7 [3]: 0 | KINOMEscan AURKC [4]: 0 | KINOMEscan SGK1 [5]: 0 | KINOMEscan CDK19 [6]: 0 | KINOMEscan CDK9 [7]: 0 | KINOMEscan RIPK4 [8]: 0 | KINOMEscan MKNK2 [9]: 0 | KINOMEscan LTK [10]: 21 | KINOMEscan RIOK2 [11]: 0 | KINOMEscan MAP3K4 [12]: 16
